Among the data in a flash point compilation (Sun et al. 2020) are flash point values, retold here.

As to `C[Si]1(C)CCCCO1` [1,1 -Dimethyl-1-sila-2-oxacyclohexane], the flash point amounted to 14.00 °C.
Same read-out and setting: to `C[SiH](C)O[SiH](C)C` [1,1,3,3-Tetramethyldisiloxane] belongs -22.00 °C; to `C=CC=CO[Si](C)(C)C` [1-(Trimethylsiloxy)-1,3-butadiene], 25.00 °C.
The compound `C[Si](C)(C)O[Si](C)(C)O[Si](C)(C)O[Si](C)(C)Cl` [1-Chlorononamethyltetrasiloxane] came in with a flash point of 74.00 °C.
Same read-out and setting: in the case of `CCCCCC#C[Si](C)(C)C` [1-Heptynyltrimethylsilane] it was 42.00 °C; in that of `C=C[Si]1(C)O[Si](C)(C=C)O[Si](C)(C=C)O[Si](C)(C=C)O1` (configuration not stated) [2,4,6,8-Tetravinyl-2,4,6,8-tetramethylcyclotetrasiloxane], 112.00 °C; in that of `C=C(CCl)C[Si](C)(C)C` [2-Chloromethyl-3-trimethylsilyl-1-propene], 43.00 °C.
`C[Si](Cl)(Cl)CCC#N` [2-Cyanoethylmethyldichlorosilane] came in with a flash point of 60.00 °C.
As to `CCO[Si](CCC#N)(OCC)OCC` [2-Cyanoethyltriethoxysilane], the flash point turned out to be 86.00 °C.
Still for that read-out and setting: to `C[Si](C)(C)C1C=CCC1` (configuration not stated) [3-(Trimethylsilyl)cyclopentene] belongs 26.00 °C.
In turn, `CO[Si](CCCCl)(OC)OC` [3-Chloropropyltrimethoxysilane] displayed a flash point of 75.00 °C.
The compound `C=CCO[Si](C)(C)C` [Allyloxytrimethylsilane] yielded a flash point of 0.00 °C.
Consider `C[Si](C)(C)Cc1ccccc1` [Benzyltrimethylsilane], for which the flash point amounted to 62.00 °C.
Compound `CCN(CC)[Si](C)(C)N(CC)CC` [Bis(diethylamino)dimethylsilane] yielded a flash point of 35.00 °C.
The same measure, in the same setting: to `CN(C)[Si](C)(C)N(C)C` [Bis(dimethylamino)dimethylsilane] belongs -7.00 °C; to `C[Si](C)(Cl)CBr` [Bromomethyldimethylchlorosilane], 41.00 °C.
Take `C[Si](C)(Cl)CCC(F)(F)F` [Chlorodimethyl(3,3,3-trifluoropropyl) silane]: the flash point turned out to be 20.00 °C.
Take `Cl[Si](Cl)(Cl)C1CCCCC1` [Cyclohexyltrichlorosilane]: the flash point was 85.00 °C.
`C[Si](C)(C)C1C=CC=C1` [Cyclopentadienyltrimethylsilane] gave a flash point of 29.00 °C.
For `Cl[SiH](Cl)C1CCCC1` [Cyclopentyldichlorosilane], the flash point came out at 43.00 °C.
Regarding `C[Si]1(C)O[Si](C)(C)O[Si](C)(C)O[Si](C)(C)O[Si](C)(C)O1` [Decamethylcyclopentasiloxane], the flash point came out at 77.00 °C.
The same measure, in the same setting: in the case of `CC(C)(C)[Si](C)(Cl)C(C)(C)C` [Di-t-butylmethylchlorosilane] it was 69.00 °C; in that of `C[Si](Cl)(Cl)C(Cl)Cl` [Dichloromethylmethyldichlorosilane], 28.00 °C.
Still for that read-out and setting: in the case of `CC[SiH2]CC` [Diethylsilane] it was -20.00 °C.
On the same count and under the same terms, to `C[SiH](C)c1c(F)c(F)c(F)c(F)c1F` [Dimethyl(pentafluorophenyl) silane] belongs 40.00 °C; to `C[SiH](C)Cl` [Dimethylchlorosilane], -28.00 °C.
Regarding `C[Si](C)(Cl)Cl` [Dimethyldichlorosilane], the flash point is -16.00 °C.
`CCO[Si](C)(C)OCC` [Dimethyldiethoxysilane]: the flash point is 11.00 °C.
As to `CO[Si](C)(C)OC` [Dimethyldimethoxysilane], the flash point was -8.00 °C.
The same measure, in the same setting: in the case of `Cl[Si](Cl)(c1ccccc1)c1ccccc1` [Diphenyldichlorosilane] it was 142.00 °C; in that of `CO[Si](OC)(c1ccccc1)c1ccccc1` [Diphenyldimethoxysilane], 121.00 °C; in that of `C=C[Si](C)(C)C=C` [Divinyldimethylsilane], 8.00 °C.
On to `C[Si](C)(C)O[Si](C)(C)O[Si](C)(C)O[Si](C)(C)O[Si](C)(C)C` [Dodecamethylpentasiloxane], for which the flash point came out at 79.00 °C.
In turn, `CC[Si](C)(C)Cl` [ETHYLDIMETHYLCHLOROSILANE] registered a flash point of -4.00 °C.
With `CCO[Si](C)(C)C` [Ethoxytrimethylsilane], the flash point is -27.00 °C.
Regarding `CC[Si](OC(C)=O)(OC(C)=O)OC(C)=O` [Ethyltriacetoxysilane], the flash point came to 104.00 °C.
On to `CN([Si](C)(C)C)[Si](C)(C)C` [Heptamethyldisilazane], for which the flash point stood at 27.00 °C.
For the compound `CCCCCCCCCCCCCCCC[Si](Cl)(Cl)Cl` [Hexadecyltrichlorosilane], the flash point was 154.00 °C.
Same read-out and setting: to `C[Si]1(C)O[Si](C)(C)O[Si](C)(C)O1` [Hexamethylcyclotrisiloxane] belongs 32.00 °C.
In turn, `C[Si](C)(C)[Si](C)(C)C` [Hexamethyldisilane] yielded a flash point of -1.00 °C.
On the same count and under the same terms, to `C[Si](C)(C)N[Si](C)(C)C` [Hexamethyldisilazane] belongs 8.00 °C; to `CCCCCC[Si](OC)(OC)OC` [Hexyltrimethoxysilane], 62.00 °C.
The compound `CC(C)C[Si](Cl)(Cl)Cl` [Isobutyltrichlorosilane] yielded a flash point of 37.00 °C.
`CO[Si](C)(OC)c1ccccc1` [Methyl phenyldimethoxysilane] had a flash point of 76.00 °C.
The compound `C[Si](Cl)(c1ccccc1)c1ccccc1` [Methyldiphenylchlorosilane] showed a flash point of 138.00 °C.
In turn, `CCO[Si](C)(OCC)OCC` [Methyltriethoxysilane] returned a flash point of 24.00 °C.
In turn, `CO[Si](C)(OC)OC` [Methyltrimethoxysilane] came in with a flash point of 11.00 °C.
On to `C[Si](C)(C)O[Si](C)(C)O[Si](C)(C)C` [Octamethyltrisiloxane], for which the flash point came out at 30.00 °C.
`C[SiH](C)O[Si](C)(C)C` [Pentamethyldisiloxane] returned a flash point of -19.00 °C.
For `F[Si](F)(F)c1ccccc1` [Phenyl trifluorosilane], the flash point was -5.00 °C.
Still for that read-out and setting: to `C[Si](C)(Cl)c1ccccc1` [Phenyldimethylchlorosilane] belongs 61.00 °C; to `[SiH3]c1ccccc1` [Phenylsilane], 8.00 °C; to `Cl[Si](Cl)(Cl)c1ccccc1` [Phenyltrichlorosilane], 91.00 °C.
The same measure, in the same setting: to `CCO[Si](OCC)(OCC)c1ccccc1` [Phenyltriethoxysilane] belongs 120.00 °C; to `C#CCO[Si](C)(C)C` [Propargyloxytrimethylsilane], 27.00 °C.
Compound `CCC[Si](O[SiH](C)C)(O[SiH](C)C)O[SiH](C)C` [Propyltris(dimethylsiloxy)silane] registered a flash point of 50.00 °C.
Regarding `CCCO[Si](OCCC)(OCCC)OCCC` [Tetra-n-propoxysilane], the flash point came out at 95.00 °C.
`C[Si](C)(C)O[Si](C)(C)O[Si](C)(C)O[Si](C)(C)O[Si](C)(C)O[Si](C)(C)C` [Tetradecamethylhexasiloxane] showed a flash point of 102.00 °C.
In the case of `CO[Si](OC)(OC)OC` [Tetramethoxysilane], the flash point was 21.00 °C.
In turn, `C[Si](C)(C)C` [Tetramethylsilane] gave a flash point of -28.00 °C.
Consider `Cl[Si](Cl)(Cl)CCc1ccccc1` [Trichloro(2-phenylethyl)silane], for which the flash point amounted to 91.00 °C.
Same read-out and setting: to `FC(F)(F)CC[Si](Cl)(Cl)Cl` [Trichloro(3,3,3-trifluoropropyl)silane] belongs 15.00 °C; to `ClC[Si](Cl)(Cl)Cl` [Trichloro(Chloromethyl) silane], 69.00 °C.
For `Clc1cccc([Si](Cl)(Cl)Cl)c1Cl` [Trichloro(dichlorophenyl)silane], the flash point is 146.00 °C.
In turn, `CC(C)[SiH](C(C)C)C(C)C` [Triisopropylsilane] came in with a flash point of 37.00 °C.
The same measure, in the same setting: in the case of `CO[SiH](OC)OC` [Trimethoxysilane] it was -9.00 °C; in that of `C[Si](C)(C)Br` [Trimethyl bromosilane], -3.00 °C.
For `CCCO[Si](C)(C)C` [Trimethyl-n-propoxysilane], the flash point came to 10.00 °C.
`C[Si](C)(C)F` [Trimethylfluorosilane] registered a flash point of -35.00 °C.
`C[Si](C)(C)N=C=S` [Trimethylsilylisothiocyanate]: the flash point is 35.00 °C.
Still for that read-out and setting: to `CN(C)[SiH](N(C)C)N(C)C` [Tris(dimethylamino)silane] belongs 25.00 °C; to `C[Si](C)(C)O[SiH](O[Si](C)(C)C)O[Si](C)(C)C` [Tris(trimethylsiloxy)silane], 50.00 °C.
The same measure, in the same setting: in the case of `C=C[Si](C)(CC)CC` [Vinyldiethylmethylsilane] it was 15.00 °C; in that of `C=C[Si](OC(C)=O)(OC(C)=O)OC(C)=O` [Vinyltriacetoxysilane], 88.00 °C.
Turning to `C=C[Si](OCC)(OCC)OCC` [Vinyltriethoxysilane], the flash point was determined as 34.00 °C.
`C=C[Si](OCCOC)(OCCOC)OCCOC` [Vinyltris(methoxyethoxy)silane] returned a flash point of 80.00 °C.

This is another data set of the same source.
With `Nc1ccc([N+](=O)[O-])cc1` [p-Nitroaniline], the flash point is 199.00 °C.
Same read-out and setting: to `Cc1ccc(N)cc1` [p-Toluidine] belongs 87.00 °C.
Compound `Cc1ccc(C)cc1` [p-Xylene] showed a flash point of 27.00 °C.
`CCCC(C)OC(C)=O` (configuration not stated) [sec-Amyl acetate] registered a flash point of 32.00 °C.
In the case of `CCCCC(C)OC(C)=O` (configuration not stated) [sec-Hexyl acetate], the flash point was 45.00 °C.
Still for that read-out and setting: in the case of `CC(C)(C)O` [tert-Butyl alcohol] it was 10.00 °C.
